Experimental data published in patent US6706740B2, “Fungicidal heterocyclic aromatic amides and their compositions, methods of use and preparation” (Dow AgroSciences LLC, priority 1999, dated 2004).

System: Septoria tritici—SEPTTR
Assay: Leaf Blotch of Wheat, in vivo whole plant, 24 Hour Protectant
Settings: Zymoseptoria tritici, 24 h, wheat plants sprayed at 100 ppm, inoculated after 24 hours; control of fungal infection vs untreated plants; read-out: SEPTTR in vivo 1 Day Protectant

Structure (SMILES)	pest or weed control at 100 ppm [%]
C=C1COC(=O)[C@@H](NC(=O)c2nccc(OC)c2OC(C)=O)COC(=O)C1 [Compound 595]	< 25
CCOc1ccnc(C(=O)Nc2ccc(Oc3cccc(C(F)(F)F)c3)cc2)c1O [Compound 476]	< 25
CC(C)C(=O)O[C@H]1[C@H](C)OC(=O)[C@@H](NC(=O)c2nnccc2O)COC(=O)[C@@H]1Cc1ccccc1 [Compound 532]	25 to 74

System: not given
Assay: not given
Settings: not given

Structure (SMILES)	melting point
C=C1COC(=O)[C@@H](NC(=O)c2nccc(OC)c2OC(C)=O)COC(=O)C1 [Compound 595]	163 to 164 °C
CCOc1ccnc(C(=O)Nc2ccc(Oc3cccc(C(F)(F)F)c3)cc2)c1O [Compound 476]	118 to 121 °C
CC(C)C(=O)O[C@H]1[C@H](C)OC(=O)[C@@H](NC(=O)c2nnccc2O)COC(=O)[C@@H]1Cc1ccccc1 [Compound 532]	233 °C (dec.)

System: Erysiphe graminis—ERYSGT
Assay: Powdery Mildew of Wheat, in vivo whole plant, 24 Hour Protectant
Settings: Erysiphe; wheat plants sprayed at 100 ppm, inoculated after 24 hours; control of fungal infection vs untreated plants; read-out: ERYSGT in vivo 1 Day Protectant

Structure (SMILES)	pest or weed control at 100 ppm [%]
C=C1COC(=O)[C@@H](NC(=O)c2nccc(OC)c2OC(C)=O)COC(=O)C1 [Compound 595]	< 25
CCOc1ccnc(C(=O)Nc2ccc(Oc3cccc(C(F)(F)F)c3)cc2)c1O [Compound 476]	< 25
CC(C)C(=O)O[C@H]1[C@H](C)OC(=O)[C@@H](NC(=O)c2nnccc2O)COC(=O)[C@@H]1Cc1ccccc1 [Compound 532]	25 to 74

System: Phytophthora infestans (PHYTIN)
Assay: microbe, parasite or virus in culture
Format: cell-based
Settings: Phytophthora infestans, read-out: PHYTIN in vitro Growth Inhibition

Structure (SMILES)	inhibition at 25 ppm [%]
C=C1COC(=O)[C@@H](NC(=O)c2nccc(OC)c2OC(C)=O)COC(=O)C1 [Compound 595]	< 80
CCOc1ccnc(C(=O)Nc2ccc(Oc3cccc(C(F)(F)F)c3)cc2)c1O [Compound 476]	< 80
CC(C)C(=O)O[C@H]1[C@H](C)OC(=O)[C@@H](NC(=O)c2nnccc2O)COC(=O)[C@@H]1Cc1ccccc1 [Compound 532]	< 80

System: Ustilago maydis (USTIMA)
Assay: microbe, parasite or virus in culture
Format: cell-based
Settings: Mycosarcoma maydis, read-out: USTIMA in vitro Growth Inhibition

Structure (SMILES)	inhibition at 25 ppm [%]
C=C1COC(=O)[C@@H](NC(=O)c2nccc(OC)c2OC(C)=O)COC(=O)C1 [Compound 595]	< 80
CCOc1ccnc(C(=O)Nc2ccc(Oc3cccc(C(F)(F)F)c3)cc2)c1O [Compound 476]	< 80
CC(C)C(=O)O[C@H]1[C@H](C)OC(=O)[C@@H](NC(=O)c2nnccc2O)COC(=O)[C@@H]1Cc1ccccc1 [Compound 532]	< 80

System: Stagonospora nodorum (Leptosphaeria nodorum—LEPTNO)
Assay: In vitro fungal growth inhibition, Stagonospora nodorum (LEPTNO)
Format: cell-based
Settings: Leptosphaeria; 25 ppm in the growth medium; read-out: LEPTNO in vitro Growth Inhibition

Structure (SMILES)	inhibition at 25 ppm [%]
C=C1COC(=O)[C@@H](NC(=O)c2nccc(OC)c2OC(C)=O)COC(=O)C1 [Compound 595]	< 80
CCOc1ccnc(C(=O)Nc2ccc(Oc3cccc(C(F)(F)F)c3)cc2)c1O [Compound 476]	< 80
CC(C)C(=O)O[C@H]1[C@H](C)OC(=O)[C@@H](NC(=O)c2nnccc2O)COC(=O)[C@@H]1Cc1ccccc1 [Compound 532]	< 80

System: Rhizoctonia solani (RHIZSO)
Assay: microbe, parasite or virus in culture
Format: cell-based
Settings: Rhizoctonia solani, read-out: RHIZSO in vitro Growth Inhibition

Structure (SMILES)	inhibition at 25 ppm [%]
C=C1COC(=O)[C@@H](NC(=O)c2nccc(OC)c2OC(C)=O)COC(=O)C1 [Compound 595]	< 80
CCOc1ccnc(C(=O)Nc2ccc(Oc3cccc(C(F)(F)F)c3)cc2)c1O [Compound 476]	< 80
CC(C)C(=O)O[C@H]1[C@H](C)OC(=O)[C@@H](NC(=O)c2nnccc2O)COC(=O)[C@@H]1Cc1ccccc1 [Compound 532]	< 80

System: Magnaporthe grisea (Pyricularia oryzae—PYRIOR)
Assay: microbe, parasite or virus in culture
Format: cell-based
Settings: Pyricularia oryzae, read-out: PYRIOR in vitro Growth Inhibition

Structure (SMILES)	inhibition at 25 ppm [%]
C=C1COC(=O)[C@@H](NC(=O)c2nccc(OC)c2OC(C)=O)COC(=O)C1 [Compound 595]	< 80
CCOc1ccnc(C(=O)Nc2ccc(Oc3cccc(C(F)(F)F)c3)cc2)c1O [Compound 476]	< 80
CC(C)C(=O)O[C@H]1[C@H](C)OC(=O)[C@@H](NC(=O)c2nnccc2O)COC(=O)[C@@H]1Cc1ccccc1 [Compound 532]	< 80

System: Phytophthora infestans—PHYTIN
Assay: whole plant or invertebrate
Format: in vivo
Settings: Phytophthora, in Solanum lycopersicum, 24 h, read-out: PHYTIN in vivo 1 Day Protectant

Structure (SMILES)	pest or weed control at 100 ppm [%]
C=C1COC(=O)[C@@H](NC(=O)c2nccc(OC)c2OC(C)=O)COC(=O)C1 [Compound 595]	< 25
CCOc1ccnc(C(=O)Nc2ccc(Oc3cccc(C(F)(F)F)c3)cc2)c1O [Compound 476]	< 25
CC(C)C(=O)O[C@H]1[C@H](C)OC(=O)[C@@H](NC(=O)c2nnccc2O)COC(=O)[C@@H]1Cc1ccccc1 [Compound 532]	25 to 74

System: Puccinia recondita—PUCCRT
Assay: Brown Rust of Wheat, in vivo whole plant, 24 Hour Protectant
Settings: Puccinia; wheat plants sprayed at 100 ppm, inoculated after 24 hours; control of fungal infection vs untreated plants; read-out: PUCCRT in vivo 1 Day Protectant

Structure (SMILES)	pest or weed control at 100 ppm [%]
C=C1COC(=O)[C@@H](NC(=O)c2nccc(OC)c2OC(C)=O)COC(=O)C1 [Compound 595]	< 25
CCOc1ccnc(C(=O)Nc2ccc(Oc3cccc(C(F)(F)F)c3)cc2)c1O [Compound 476]	< 25
CC(C)C(=O)O[C@H]1[C@H](C)OC(=O)[C@@H](NC(=O)c2nnccc2O)COC(=O)[C@@H]1Cc1ccccc1 [Compound 532]	25 to 74

System: Leptosphaeria nodorum—LEPTNO
Assay: Glume Blotch of Wheat, in vivo whole plant, 24 Hour Protectant
Settings: Leptosphaeria; wheat plants sprayed at 100 ppm, inoculated after 24 hours; control of fungal infection vs untreated plants; read-out: LEPTNO in vivo 1 Day Protectant

Structure (SMILES)	pest or weed control at 100 ppm [%]
C=C1COC(=O)[C@@H](NC(=O)c2nccc(OC)c2OC(C)=O)COC(=O)C1 [Compound 595]	25 to 74
CCOc1ccnc(C(=O)Nc2ccc(Oc3cccc(C(F)(F)F)c3)cc2)c1O [Compound 476]	25 to 74
CC(C)C(=O)O[C@H]1[C@H](C)OC(=O)[C@@H](NC(=O)c2nnccc2O)COC(=O)[C@@H]1Cc1ccccc1 [Compound 532]	25 to 74

System: Mycosphaerella graminicola (Septoria tritici—SEPTTR)
Assay: In vitro fungal growth inhibition, Mycosphaerella graminicola (SEPTTR)
Format: cell-based
Settings: Zymoseptoria tritici; 25 ppm in the growth medium; read-out: SEPTTR in vitro Growth Inhibition

Structure (SMILES)	inhibition at 25 ppm [%]
C=C1COC(=O)[C@@H](NC(=O)c2nccc(OC)c2OC(C)=O)COC(=O)C1 [Compound 595]	< 80
CCOc1ccnc(C(=O)Nc2ccc(Oc3cccc(C(F)(F)F)c3)cc2)c1O [Compound 476]	< 80
CC(C)C(=O)O[C@H]1[C@H](C)OC(=O)[C@@H](NC(=O)c2nnccc2O)COC(=O)[C@@H]1Cc1ccccc1 [Compound 532]	< 80
